Measurements: publication PMC2662861, “An unexpected phosphate binding site in Glyceraldehyde 3-Phosphate Dehydrogenase: Crystal structures of apo, holo and ternary complex of Cryptosporidium parvum enzyme” (BMC Structural Biology, 2009)

Target: T1, CpGAPDH (Cryptosporidium parvum glyceraldehyde 3-phosphate dehydrogenase) (Cryptosporidium parvum, UniProt Q7YYQ9)
T1 construct: gene cgd6_3790; recombinant, N-terminal hexa-histidine tag kept, expressed in E. coli; homotetramer
Test: X-ray crystal structure, […] Å, co-crystallized
Type: binding
Settings: holoenzyme; 2 mM NAD; pH 7.5; NAD in all four subunits

T1 sequence (Q7YYQ9 1-339): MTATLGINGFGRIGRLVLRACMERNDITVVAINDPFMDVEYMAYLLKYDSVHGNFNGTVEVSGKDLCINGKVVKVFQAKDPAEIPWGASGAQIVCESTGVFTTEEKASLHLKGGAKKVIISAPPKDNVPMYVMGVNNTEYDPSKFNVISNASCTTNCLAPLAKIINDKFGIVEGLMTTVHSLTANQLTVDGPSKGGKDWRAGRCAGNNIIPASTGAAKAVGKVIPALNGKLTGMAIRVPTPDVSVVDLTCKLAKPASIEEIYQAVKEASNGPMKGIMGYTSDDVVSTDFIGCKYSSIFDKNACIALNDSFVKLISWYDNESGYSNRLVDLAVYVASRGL

NC(=O)c1ccc[n+]([C@@H]2O[C@H](COP(=O)(O)OP(=O)(O)OC[C@H]3O[C@@H](n4cnc5c(N)ncnc54)[C@H](O)[C@@H]3O)[C@@H](O)[C@H]2O)c1 [NAD]
X-ray crystal structure, 2.0 Å, co-crystallized: The holoenzyme form of CpGAPDH contains one NAD molecule in each subunit
